Measurements published in ChEMBL document CHEMBL6134813, “Arctigenin derivative TZOA restores mitochondrial homeostasis to combat rhabdovirus infections” (Eur J Med Chem, 2025).
The source made the active and inactive calls. The rule behind the calls is not given here.

Legend:
[1] = Cytotoxicity against EPC cells (unknown origin) assessed as cell viability at 64 uM measured after 72 hrs by CCK8 assay; type: toxicity, cell-based
[2] = test system: Infectious hematopoietic necrosis virus; test: Antiviral activity against IHNV infected in EPC cells (unknown origin) assessed as inhibition of viral G gene expression at 25 uM measured after 72 hrs by RT-qPCR analysis relative to control; type: functional
[3] = test system: Infectious hematopoietic necrosis virus; test: Antiviral activity against IHNV infected in EPC cells (unknown origin) assessed as cristae of varying lengths with attached granules in inner membrane of mitochondria by TEM analysis; type: functional, organism-based
[4] = test system: Infectious hematopoietic necrosis virus; test: Antiviral activity against IHNV infected in juvenile rainbow trout assessed as increase in IRF3 gene expression in kidney administered intraperitoneally measured after 2 days by RT-qPCR analysis; type: functional, organism-based; conditions: route ip, time 2.0 day
[5] = test system: Infectious hematopoietic necrosis virus; test: Antiviral activity against IHNV infected in EPC cells (unknown origin) assessed as dense monolayer arrangement in host cells at 25 uM pretreated virus with compound for 4 hrs followed by compound-treated virus infection in EPC cells measured after 72 hrs by microscopic analysis; type: functional, organism-based
[6] = test system: Infectious hematopoietic necrosis virus; test: Antiviral activity against IHNV infected in EPC cells (unknown origin) assessed as uniform shaped nuclei at 25 uM measured after 72 hrs by fluorescence microscopy; type: functional, organism-based
[7] = test system: Infectious hematopoietic necrosis virus; test: Antiviral activity against IHNV infected in EPC cells (unknown origin) assessed as viral titer measured per 0.1 ml incubated for 72 hrs by Reed-Muench method (reference value: 1 10^6.74TCID50); type: functional
[8] = test system: Infectious hematopoietic necrosis virus; test: Antiviral activity against IHNV infected in EPC cells (unknown origin) assessed as area of mitochondria by TEM analysis (reference value: 0.05 to 0.2 um2); type: functional
[9] = test system: Infectious hematopoietic necrosis virus; test: Antiviral activity against IHNV infected in EPC cells (unknown origin) assessed as reduction in viral load for internalization at 25 uM incubated for 1 hr at 4 degreeC followed by 2 hrs of incubation at 25 degreeC by RT-qPCR analysis relative to control; type: functional; parameters: scale not given: the % may be the effect or the level left; conditions: time 3 hrs
[10] = test system: Infectious hematopoietic necrosis virus; test: Antiviral activity against IHNV infected in juvenile rainbow trout assessed as increase in IRF3 gene expression in spleen administered intraperitoneally measured after 2 days by RT-qPCR analysis; type: functional, organism-based; conditions: route ip, time 2.0 day
[11] = test system: Infectious hematopoietic necrosis virus; test: Antiviral activity against IHNV infected in EPC cells (unknown origin) assessed as reduction in virus-induced mitochondrial-lysosomal contact at 25 uM incubated for 72 hrs by Mito-Tracker/Lyso-Tracker dye based analysis; type: functional, organism-based
[12] = test system: Infectious hematopoietic necrosis virus; test: Antiviral activity against IHNV infected in EPC cells (unknown origin) assessed as reduction in cytopathic effect at 25 uM pretreated virus with compound for 1 to 2 hrs followed by compound-treated virus infection in EPC cells measured after 72 hrs by RT-qPCR analysis; type: functional, organism-based; conditions: time 1-2 hrs
[13] = test system: Infectious hematopoietic necrosis virus; test: Antiviral activity against IHNV infected in juvenile rainbow trout assessed as increase in ISG15 gene expression in spleen administered intraperitoneally measured after 2 days by RT-qPCR analysis; type: functional, organism-based; conditions: route ip, time 2.0 day
[14] = test system: Infectious hematopoietic necrosis virus; test: Antiviral activity against IHNV infected in EPC cells (unknown origin) assessed as inhibition of viral infection at 4 to 25 uM measured after 72 hrs by RT-qPCR analysis; type: functional, organism-based; conditions: dose 4-25 µM
[15] = test system: Infectious hematopoietic necrosis virus; test: Antiviral activity against IHNV infected in EPC cells (unknown origin) assessed as minimal number of apoptotic bodies within observed area at 25 uM measured after 72 hrs by fluorescence microscopy; type: functional, organism-based
[16] = test system: Infectious hematopoietic necrosis virus; test: Antiviral activity against IHNV infected in EPC cells (unknown origin) assessed as inhibition of viral G gene expression measured after 72 hrs by RT-qPCR analysis; type: functional, organism-based; conditions: dose 0.1-100 µM
[17] = test system: Infectious hematopoietic necrosis virus; test: Antiviral activity against IHNV infected in EPC cells (unknown origin) assessed as increase in virus-reduced average number of mitochondrial networks within cells at 25 uM incubated for 72 hrs by Mito-Tracker dye based analysis; type: functional, organism-based
[18] = test system: Infectious hematopoietic necrosis virus; test: Antiviral activity against IHNV infected in EPC cells (unknown origin) assessed as inhibition of viral M gene expression at 25 uM measured after 72 hrs by RT-qPCR analysis relative to control; type: functional
[19] = test system: Infectious hematopoietic necrosis virus; test: Antiviral activity against IHNV infected in EPC cells (unknown origin) assessed as decrease in formation of new viral particles at 25 uM measured after 72 hrs by RT-qPCR analysis relative to control; type: functional; parameters: scale not given: the % may be the effect or the level left
[20] = test system: Infectious hematopoietic necrosis virus; test: Antiviral activity against IHNV infected in juvenile rainbow trout assessed as increase in Mx1 gene expression in spleen administered intraperitoneally measured after 2 days by RT-qPCR analysis; type: functional, organism-based; conditions: route ip, time 2.0 day
[21] = test system: Infectious hematopoietic necrosis virus; test: Antiviral activity against IHNV infected in juvenile rainbow trout assessed as decrease in viral G gene expression in spleen administered intraperitoneally measured after 1 to 4 days by RT-qPCR analysis; type: functional, organism-based; conditions: route ip, time 1-4 day
[22] = test system: Infectious hematopoietic necrosis virus; test: Antiviral activity against IHNV infected in EPC cells (unknown origin) assessed as viral titer measured per 0.1 ml incubated for 48 hrs by Reed-Muench method (reference value: 1 10^5.75TCID50); type: functional
[23] = test system: Infectious hematopoietic necrosis virus; test: Antiviral activity against IHNV infected in EPC cells (unknown origin) assessed as reduction in cytopathic effect at >4 uM measured after 72 hrs by RT-qPCR analysis; type: functional, organism-based
[24] = test system: Infectious hematopoietic necrosis virus; test: Antiviral activity against IHNV infected in EPC cells (unknown origin) assessed as reversal of chromatin condensation at 25 uM measured after 72 hrs by fluorescence microscopy; type: functional, organism-based
[25] = test system: Infectious hematopoietic necrosis virus; test: Antiviral activity against IHNV infected in EPC cells (unknown origin) assessed as reduction in viral load for adsorption at 25 uM measured after 1 hr of incubation at 4 degreeC by RT-qPCR analysis relative to control; type: functional; parameters: scale not given: the % may be the effect or the level left
[26] = test system: Infectious hematopoietic necrosis virus; test: Antiviral activity against IHNV infected in juvenile rainbow trout assessed as decrease in erythrocytes in spleen administered intraperitoneally measured after 2 days by H and E staining based analysis; type: functional, organism-based; conditions: route ip, time 2.0 day
[27] = test system: Infectious hematopoietic necrosis virus; test: Antiviral activity against IHNV infected in EPC cells (unknown origin) assessed as formation of tubular structures by cristae by TEM analysis; type: functional, organism-based
[28] = test system: Infectious hematopoietic necrosis virus; test: Antiviral activity against IHNV infected in juvenile rainbow trout assessed as decrease in hemorrhage in kidney administered intraperitoneally measured after 2 days by H and E staining based analysis; type: functional, organism-based; conditions: route ip, time 2.0 day
[29] = test system: Infectious hematopoietic necrosis virus; test: Antiviral activity against IHNV infected in EPC cells (unknown origin) assessed as inhibition of viral replication at 25 uM pre-infected with virus for 6 hrs followed by compound addition measured after 72 hrs by RT-qPCR analysis relative to control; type: functional
[30] = test system: Infectious hematopoietic necrosis virus; test: Antiviral activity against IHNV infected in EPC cells (unknown origin) assessed as mitochondrial length by TEM analysis (reference value: 0.2 to 0.7 um); type: functional

## COc1ccc(C[C@H]2COC(=O)[C@@H]2Cc2ccc(OCCCCCCCCn3cncn3)c(OC)c2)cc1OC
[1]
  Activity: Toxic
[2]
  inhibition at 25 µM: > 90%
[3]
  Activity: Active
[4]
  Activity: Active
[5]
  Activity: Active
[6]
  Activity: Active
[7]
  Activity: 1 10^4.73TCID50
[8]
  Activity: 0.2 um2
[9]
  Activity: 46%
[10]
  Activity: Active
[11]
  Activity: Active
[12]
  Activity: Active
[13]
  Activity: Active
[14]
  inhibition: Active
[15]
  Activity: Active
[16]
  inhibition: Dose-dependent-effect
[17]
  Activity: Active
[18]
  inhibition at 25 µM: > 90%
[19]
  Activity: 100%
[20]
  Activity: Active
[21]
  Activity: Active
[22]
  Activity: 1 10^2.45TCID50
[23]
  Activity: Active
[24]
  Activity: Active
[25]
  Activity: 20%
[26]
  Activity: Active
[27]
  Activity: Active; The Cristae Formed Tubular Structures, With The Inter-Membrane Space Forming The Mitochondrial Outer Chamber And Connecting Cristae Inner Spaces
[28]
  Activity: Active
[29]
  inhibition at 25 µM: 80%
[30]
  Activity: 0.8 um
